Assay results taken from ChEMBL document CHEMBL1134688, “Synthesis, biological evaluation, and pharmacophore generation of new pyridazinone derivatives with affinity toward alpha(1)- and alpha(2)-adrenoceptors” (J Med Chem, 2001).

Experiments:
[1] = target: T1, Adrenergic receptor alpha-1 (Rattus norvegicus, UniProt P15823+P23944+P43140); assay: Alpha-1 adrenergic receptor binding affinity of the compound, value taken from literature; format: protein assay
T1 sequence (P15823 whole entry): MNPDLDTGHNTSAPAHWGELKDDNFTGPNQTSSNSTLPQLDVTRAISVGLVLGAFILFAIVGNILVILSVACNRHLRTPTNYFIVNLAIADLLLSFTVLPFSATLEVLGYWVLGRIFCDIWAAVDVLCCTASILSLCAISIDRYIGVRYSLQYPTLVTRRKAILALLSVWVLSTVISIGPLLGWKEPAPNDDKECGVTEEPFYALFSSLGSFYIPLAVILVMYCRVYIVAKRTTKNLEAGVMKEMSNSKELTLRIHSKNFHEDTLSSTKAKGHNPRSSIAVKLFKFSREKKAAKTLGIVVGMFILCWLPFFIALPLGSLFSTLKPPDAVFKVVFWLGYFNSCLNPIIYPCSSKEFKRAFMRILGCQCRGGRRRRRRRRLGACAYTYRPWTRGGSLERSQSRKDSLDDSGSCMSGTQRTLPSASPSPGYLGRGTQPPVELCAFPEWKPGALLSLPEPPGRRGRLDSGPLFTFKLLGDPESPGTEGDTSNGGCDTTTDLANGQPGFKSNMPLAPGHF
T1 sequence (P23944 whole entry): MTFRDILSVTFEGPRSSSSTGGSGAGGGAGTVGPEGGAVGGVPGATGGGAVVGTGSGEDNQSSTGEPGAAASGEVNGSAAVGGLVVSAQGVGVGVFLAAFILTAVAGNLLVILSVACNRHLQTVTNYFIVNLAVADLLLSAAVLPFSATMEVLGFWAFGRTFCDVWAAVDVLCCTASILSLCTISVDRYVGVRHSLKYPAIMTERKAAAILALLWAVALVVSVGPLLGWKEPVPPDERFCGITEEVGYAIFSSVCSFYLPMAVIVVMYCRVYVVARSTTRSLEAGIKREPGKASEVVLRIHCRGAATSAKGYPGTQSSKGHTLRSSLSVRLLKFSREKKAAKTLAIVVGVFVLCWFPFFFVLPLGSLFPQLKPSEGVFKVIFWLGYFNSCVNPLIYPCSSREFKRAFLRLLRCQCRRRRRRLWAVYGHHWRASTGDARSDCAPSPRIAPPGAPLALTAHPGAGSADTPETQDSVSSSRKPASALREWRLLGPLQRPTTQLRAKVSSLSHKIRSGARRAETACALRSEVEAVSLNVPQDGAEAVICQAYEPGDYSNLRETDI
T1 sequence (P43140 whole entry): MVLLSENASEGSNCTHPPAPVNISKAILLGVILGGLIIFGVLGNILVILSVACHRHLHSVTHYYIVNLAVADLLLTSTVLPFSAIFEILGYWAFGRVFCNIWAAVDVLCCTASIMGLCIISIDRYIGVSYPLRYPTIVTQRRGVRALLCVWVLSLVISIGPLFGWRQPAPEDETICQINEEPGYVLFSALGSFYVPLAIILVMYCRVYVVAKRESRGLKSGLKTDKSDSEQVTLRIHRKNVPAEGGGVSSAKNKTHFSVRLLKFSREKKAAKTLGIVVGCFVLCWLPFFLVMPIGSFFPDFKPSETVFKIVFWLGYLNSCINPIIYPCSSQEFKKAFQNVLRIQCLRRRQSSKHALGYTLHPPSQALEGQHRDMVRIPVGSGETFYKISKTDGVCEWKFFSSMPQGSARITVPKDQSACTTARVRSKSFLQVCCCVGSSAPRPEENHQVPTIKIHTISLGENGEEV

[2] = target: T1, Adrenergic receptor alpha-1; assay: Alpha-1-adrenergic receptor binding affinity of the compound, value taken from literature; format: protein assay
[3] = target: Adrenergic receptor alpha-2 (Rattus norvegicus) (UniProt P22086+P19328+P22909); assay: Ratio of binding affinity towards Alpha-2 and alpha-1 adrenergic receptor; format: protein assay
[4] = target: T2, Adrenergic receptor alpha-2 (Rattus norvegicus, UniProt P22086+P19328+P22909); assay: Binding affinity towards alpha-2 adrenergic receptor in rat cortex membrane using [3H]rauwolscine radioligand; format: cell membranes
T2 sequence (P22086 whole entry): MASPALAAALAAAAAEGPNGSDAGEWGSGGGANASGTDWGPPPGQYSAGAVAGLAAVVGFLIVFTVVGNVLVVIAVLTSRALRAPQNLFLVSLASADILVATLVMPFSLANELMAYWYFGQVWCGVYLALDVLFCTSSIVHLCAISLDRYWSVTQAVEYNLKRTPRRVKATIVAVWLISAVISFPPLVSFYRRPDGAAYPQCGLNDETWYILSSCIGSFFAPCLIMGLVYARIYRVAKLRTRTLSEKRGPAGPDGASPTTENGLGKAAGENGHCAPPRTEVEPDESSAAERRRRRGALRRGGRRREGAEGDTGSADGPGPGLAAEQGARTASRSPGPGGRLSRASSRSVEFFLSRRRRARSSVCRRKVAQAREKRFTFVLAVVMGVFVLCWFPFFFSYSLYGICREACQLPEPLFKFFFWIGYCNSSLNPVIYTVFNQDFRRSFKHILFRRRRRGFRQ
T2 sequence (P19328 whole entry): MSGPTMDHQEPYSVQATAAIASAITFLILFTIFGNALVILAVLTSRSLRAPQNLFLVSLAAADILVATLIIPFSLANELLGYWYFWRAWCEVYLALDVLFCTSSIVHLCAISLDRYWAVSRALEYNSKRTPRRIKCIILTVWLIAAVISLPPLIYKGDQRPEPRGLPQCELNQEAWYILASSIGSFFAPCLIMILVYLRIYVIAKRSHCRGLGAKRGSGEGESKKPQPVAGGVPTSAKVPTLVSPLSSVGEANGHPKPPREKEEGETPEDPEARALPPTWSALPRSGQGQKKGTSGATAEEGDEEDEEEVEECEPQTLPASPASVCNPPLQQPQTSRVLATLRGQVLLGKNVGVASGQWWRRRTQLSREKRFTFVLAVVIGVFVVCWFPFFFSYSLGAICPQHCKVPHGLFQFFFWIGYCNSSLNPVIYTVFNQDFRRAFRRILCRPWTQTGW
T2 sequence (P22909 whole entry): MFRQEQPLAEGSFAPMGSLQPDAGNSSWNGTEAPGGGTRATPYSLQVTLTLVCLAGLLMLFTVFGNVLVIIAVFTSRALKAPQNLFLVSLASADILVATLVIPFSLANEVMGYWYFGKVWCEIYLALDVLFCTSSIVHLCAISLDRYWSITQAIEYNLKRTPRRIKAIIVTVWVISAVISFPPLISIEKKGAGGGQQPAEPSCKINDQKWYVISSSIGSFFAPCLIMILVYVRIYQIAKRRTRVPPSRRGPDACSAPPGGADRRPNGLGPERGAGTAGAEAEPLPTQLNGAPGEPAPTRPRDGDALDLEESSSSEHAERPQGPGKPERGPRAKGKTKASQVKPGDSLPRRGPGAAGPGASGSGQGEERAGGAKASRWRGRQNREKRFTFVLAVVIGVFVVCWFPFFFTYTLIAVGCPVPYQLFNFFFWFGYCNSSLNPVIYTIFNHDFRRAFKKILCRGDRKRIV

[5] = target: T1, Adrenergic receptor alpha-1; assay: Binding affinity towards alpha-1 adrenergic receptor in rat cortex membrane using [3H]-prazosin radioligand; format: cell membranes

Ki [1] | Ki [2] | Ratio [3] | Ki [4] | Ki [5] | Structure (SMILES)
374 nM |  |  |  |  | O=C1CCc2ccccc2N1CCCCN1CCN(c2ncccn2)CC1
0.34 nM |  |  |  |  | COc1ccccc1N1CCN(CCCCN2C(=O)CCc3ccccc32)CC1
11.9 nM |  |  |  |  | COc1ccccc1N1CCN(CCCCN2C(=O)CCC2=O)CC1
 | 0.21 nM |  |  |  | COc1ccccc1N1CCN(CCn2c(=O)[nH]c3c([nH]c4ccccc43)c2=O)CC1
 |  | 1.7 | 96 nM | 54.7 nM | COc1ccccc1N1CCN(CCCCCCCn2nc(N3CCN(C(=O)c4ccco4)CC3)ccc2=O)CC1
 |  | 2.3 | 3.5 nM | 1.5 nM | COc1ccccc1OCCN1CCN(c2cnn(CCCCCCN3CCN(c4ccccc4OC)CC3)c(=O)c2Cl)CC1
 |  | 274 | 520 nM | 1.9 nM | COc1ccccc1N1CCN(CCCCCCCn2ncc(N3CCN(C(=O)c4ccco4)CC3)c(Cl)c2=O)CC1
17.5 nM |  |  |  |  | COc1ccccc1N1CCN(CCNC(=O)C23CC4CC(CC(C4)C2)C3)CC1
 |  | 3.2 | 4.6 nM | 1.4 nM | COc1ccccc1OCCN1CCN(c2cnn(CCCCCCCN3CCN(c4ccccc4OC)CC3)c(=O)c2Cl)CC1
 |  | 20 | 138 nM | 7 nM | COc1ccccc1OCCN1CCN(c2ccc(=O)n(CCCCCN3CCN(c4ccccc4Cl)CC3)n2)CC1
 |  | 6.4 | 29 nM | 4.5 nM | COc1ccccc1OCCN1CCN(c2cnn(CCCCCN3CCN(c4ccccc4Cl)CC3)c(=O)c2Cl)CC1
 |  | 46.5 | 316 nM | 6.8 nM | COc1ccccc1OCCN1CCN(c2ccc(=O)n(CCCN3CCN(c4ccccc4Cl)CC3)n2)CC1
 |  | 3.8 | 15 nM | 3.9 nM | COc1ccccc1OCCN1CCN(c2cnn(CCCCCN3CCN(c4ccccc4OC)CC3)c(=O)c2Cl)CC1
 |  | 12.3 | 23.3 nM | 1.9 nM | COc1ccccc1N1CCN(CCCCCn2ncc(N3CCN(C(=O)c4ccco4)CC3)c(Cl)c2=O)CC1
258 nM |  |  |  |  | CCC(=O)NCCN1CCN(c2ccccc2OC)CC1
 |  | 4 | 22.8 nM | 5.6 nM | COc1ccccc1OCCN1CCN(c2cnn(CCCCCCCCN3CCN(c4ccccc4Cl)CC3)c(=O)c2Cl)CC1
 |  | 3 | 24 nM | 7.9 nM | O=C(c1ccco1)N1CCN(c2ccc(=O)n(CCCCN3CCN(c4ccccc4Cl)CC3)n2)CC1
 |  | 6 | 24.5 nM | 4.1 nM | COc1ccccc1N1CCN(CCCCCCn2ncc(N3CCN(C(=O)c4ccco4)CC3)c(Cl)c2=O)CC1
 |  | 25.5 | 409 nM | 16 nM | COc1ccccc1OCCN1CCN(c2cnn(CCN3CCN(c4ccccc4OC)CC3)c(=O)c2Cl)CC1
 |  | 86.7 | 69.4 nM | 0.8 nM | COc1ccccc1OCCN1CCN(c2ccc(=O)n(CCCCN3CCN(c4ccccc4Cl)CC3)n2)CC1
 |  | 53 | 230 nM | 4.3 nM | COc1ccccc1OCCN1CCN(c2cnn(CCCCN3CCN(c4ccccc4OC)CC3)c(=O)c2Cl)CC1
 |  | 2.7 | 7.4 nM | 2.7 nM | COc1ccccc1OCCN1CCN(c2cnn(CCCCCCCN3CCN(c4ccccc4Cl)CC3)c(=O)c2Cl)CC1
 |  | 20 | 45.8 nM | 2.3 nM | COc1ccccc1OCCN1CCN(c2ccc(=O)n(CCCCCCCN3CCN(c4ccccc4OC)CC3)n2)CC1
 |  | 14.7 | 280 nM | 19 nM | O=C(c1ccco1)N1CCN(c2cnn(CCCCN3CCN(c4ccccc4Cl)CC3)c(=O)c2Cl)CC1
 |  | 34.8 | 254 nM | 7.3 nM | COc1ccccc1OCCN1CCN(c2ccc(=O)n(CCCN3CCN(c4ccccc4OC)CC3)n2)CC1
 |  | 103 | 62 nM | 0.6 nM | COc1ccccc1OCCN1CCN(c2ccc(=O)n(CCCCN3CCN(c4ccccc4OC)CC3)n2)CC1
 |  | 4.4 | 790 nM | 180 nM | COc1ccccc1N1CCN(CCCCn2nc(N3CCN(C(=O)c4ccco4)CC3)ccc2=O)CC1
 |  | 10.2 | 71.8 nM | 7 nM | COc1ccccc1OCCN1CCN(c2ccc(=O)n(CCCCCCN3CCN(c4ccccc4OC)CC3)n2)CC1
 |  | 16.5 | 138.8 nM | 8.4 nM | COc1ccccc1OCCN1CCN(c2ccc(=O)n(CCCCCCN3CCN(c4ccccc4Cl)CC3)n2)CC1
